From ChEMBL document CHEMBL3745645, “Synthesis, in vitro antitumor activity, dihydrofolate reductase inhibition, DNA intercalation and structure-activity relationship studies of 1,3,5-triazine analogues” (Bioorg Med Chem Lett, 2016)
Activity calls are given as the source filed them. The calls are words filed in the database; no cut-off is given here.

Experiments:
Type in all cases: functional
CAKI-1 = experiment: Cytotoxicity against human Caki1 cells at 10 uM after 48 hrs by SRB assay
[1] = Cytotoxicity against human RXF393 cells at 10 uM after 48 hrs by SRB assay; conditions: RXF 393, 48 h, read-out: GI
SN12C = experiment: Cytotoxicity against human SN12C cells at 10 uM after 48 hrs by SRB assay; conditions: read-out: GI
TK-10 = experiment: Cytotoxicity against human TK10 cells at 10 uM after 48 hrs by SRB assay
[2] = Cytotoxicity against human UO31 cells at 10 uM after 48 hrs by SRB assay; conditions: UO-31, 48 h, read-out: GI
[3] = Cytotoxicity against human PC3 cells at 10 uM after 48 hrs by SRB assay; conditions: PC-3, 48 h, read-out: GI
DU-145 = experiment: Cytotoxicity against human DU145 cells at 10 uM after 48 hrs by SRB assay
MCF7 = experiment: Cytotoxicity against human MCF7 cells at 10 uM after 48 hrs by SRB assay; conditions: MCF7, 48 h, read-out: GI
MDA-MB-231 = experiment: Cytotoxicity against human MDA-MB-231 cells at 10 uM after 48 hrs by SRB assay; conditions: MDA-MB-231, 48 h, read-out: GI
[4] = Cytotoxicity against human Hs 578T cells at 10 uM after 48 hrs by SRB assay; conditions: read-out: GI
[5] = Cytotoxicity against human BT549 cells at 10 uM after 48 hrs by SRB assay; conditions: BT-549, 48 h, read-out: GI
T47D = experiment: Cytotoxicity against human T47D cells at 10 uM after 48 hrs by SRB assay; conditions: read-out: GI
MDA-MB-468 = experiment: Cytotoxicity against human MDA-MB-468 cells at 10 uM after 48 hrs by SRB assay; conditions: MDA-MB-468, 48 h, read-out: GI
CCRF-CEM = experiment: Cytotoxicity against human CCRF-CEM cells at 10 uM after 48 hrs by SRB assay; conditions: read-out: GI
K562 = experiment: Cytotoxicity against human K562 cells at 10 uM after 48 hrs by SRB assay; conditions: K562, 48 h, read-out: GI
[6] = Cytotoxicity against human MOLT4 cells at 10 uM after 48 hrs by SRB assay; conditions: MOLT-4, 48 h, read-out: GI
[7] = Cytotoxicity against human RPMI8226 cells at 10 uM after 48 hrs by SRB assay; conditions: RPMI-8226, 48 h, read-out: GI
SR = experiment: Cytotoxicity against human SR cells at 10 uM after 48 hrs by SRB assay; conditions: read-out: GI
A549 = experiment: Cytotoxicity against human A549 cells at 10 uM after 48 hrs by SRB assay; conditions: A549, 48 h, read-out: GI
[8] = Cytotoxicity against human HOP62 cells at 10 uM after 48 hrs by SRB assay; conditions: HOP-62, 48 h, read-out: GI
[9] = Cytotoxicity against human HOP92 cells at 10 uM after 48 hrs by SRB assay; conditions: HOP-92, 48 h, read-out: GI
NCI-H226 = experiment: Cytotoxicity against human NCI-H226 cells at 10 uM after 48 hrs by SRB assay; conditions: NCI-H226, 48 h, read-out: GI
NCI-H23 = experiment: Cytotoxicity against human NCI-H23 cells at 10 uM after 48 hrs by SRB assay; conditions: NCI-H23, 48 h, read-out: GI
NCI-H322M = experiment: Cytotoxicity against human NCI-H322M cells at 10 uM after 48 hrs by SRB assay
NCI-H460 = experiment: Cytotoxicity against human NCI-H460 cells at 10 uM after 48 hrs by SRB assay; conditions: NCI-H460, 48 h, read-out: GI
NCI-H522 = experiment: Cytotoxicity against human NCI-H522 cells at 10 uM after 48 hrs by SRB assay; conditions: NCI-H522, 48 h, read-out: GI
[10] = Cytotoxicity against human COLO205 cells at 10 uM after 48 hrs by SRB assay; conditions: COLO 205, 48 h, read-out: GI
HCC 2998 = experiment: Cytotoxicity against human HCC2998 cells at 10 uM after 48 hrs by SRB assay
[11] = Cytotoxicity against human HCT116 cells at 10 uM after 48 hrs by SRB assay; conditions: HCT-116, 48 h, read-out: GI
[12] = Cytotoxicity against human HCT15 cells at 10 uM after 48 hrs by SRB assay; conditions: HCT-15, 48 h, read-out: GI
HT-29 = experiment: Cytotoxicity against human HT-29 cells at 10 uM after 48 hrs by SRB assay
KM12 = experiment: Cytotoxicity against human KM12 cells at 10 uM after 48 hrs by SRB assay; conditions: KM12, 48 h, read-out: GI
[13] = Cytotoxicity against human SW620 cells at 10 uM after 48 hrs by SRB assay; conditions: SW-620, 48 h, read-out: GI
SF-268 = experiment: Cytotoxicity against human SF268 cells at 10 uM after 48 hrs by SRB assay
[14] = Cytotoxicity against human SF295 cells at 10 uM after 48 hrs by SRB assay; conditions: SF-295, 48 h, read-out: GI
[15] = Cytotoxicity against human SF539 cells at 10 uM after 48 hrs by SRB assay; conditions: SF-539, 48 h, read-out: GI
[16] = Cytotoxicity against human SNB19 cells at 10 uM after 48 hrs by SRB assay; conditions: SNB-19, 48 h, read-out: GI
[17] = Cytotoxicity against human SNB75 cells at 10 uM after 48 hrs by SRB assay; conditions: SNB-75, 48 h, read-out: GI
U-251 = experiment: Cytotoxicity against human U251 cells at 10 uM after 48 hrs by SRB assay; conditions: U-251, 48 h, read-out: GI
LOX IMVI = experiment: Cytotoxicity against human LOXIMVI cells at 10 uM after 48 hrs by SRB assay
Malme-3M = experiment: Cytotoxicity against human MALME-3M cells at 10 uM after 48 hrs by SRB assay; conditions: read-out: GI
M14 = experiment: Cytotoxicity against human M14 cells at 10 uM after 48 hrs by SRB assay; conditions: M14, 48 h, read-out: GI
MDA-MB-435 = experiment: Cytotoxicity against human MDA-MB-435 cells at 10 uM after 48 hrs by SRB assay; conditions: MDA-MB-435, 48 h, read-out: GI
SK-MEL-28 = experiment: Cytotoxicity against human SK-MEL-28 cells at 10 uM after 48 hrs by SRB assay
SK-MEL-5 = experiment: Cytotoxicity against human SK-MEL-5 cells at 10 uM after 48 hrs by SRB assay; conditions: SK-MEL-5, 48 h, read-out: GI
UACC-257 = experiment: Cytotoxicity against human UACC257 cells at 10 uM after 48 hrs by SRB assay
[18] = Cytotoxicity against human UACC62 cells at 10 uM after 48 hrs by SRB assay; conditions: UACC-62, 48 h, read-out: GI
IGROV-1 = experiment: Cytotoxicity against human IGROV1 cells at 10 uM after 48 hrs by SRB assay
[19] = Cytotoxicity against human OVCAR3 cells at 10 uM after 48 hrs by SRB assay; conditions: OVCAR-3, 48 h, read-out: GI
OVCAR-4 = experiment: Cytotoxicity against human OVCAR4 cells at 10 uM after 48 hrs by SRB assay
[20] = Cytotoxicity against human OVCAR8 cells at 10 uM after 48 hrs by SRB assay; conditions: OVCAR-8, 48 h, read-out: GI
[21] = Cytotoxicity against human NCI-ADR-RES cells at 10 uM after 48 hrs by SRB assay; conditions: read-out: GI
SK-OV-3 = experiment: Cytotoxicity against human SKOV3 cells at 10 uM after 48 hrs by SRB assay
786-0 = experiment: Cytotoxicity against human 786-0 cells at 10 uM after 48 hrs by SRB assay; conditions: 786-0, 48 h, read-out: GI
A498 = experiment: Cytotoxicity against human A498 cells at 10 uM after 48 hrs by SRB assay; conditions: A498, 48 h, read-out: GI
ACHN = experiment: Cytotoxicity against human ACHN cells at 10 uM after 48 hrs by SRB assay; conditions: read-out: GI

Cc1nc2ccc(Nc3nc(NCCO)nc(Nc4ccc(F)cc4)n3)cc2n1Cc1ccccc1
growth inhibition (GI) (CAKI-1): inactive
inhibition of growth at 10 µM [1]: 26.1%
inhibition of growth at 10 µM (SN12C): 1.6%
growth inhibition (GI) (TK-10): inactive
inhibition of growth at 10 µM [2]: 13.2%
inhibition of growth at 10 µM [3]: 0.89%
growth inhibition (GI) (DU-145): inactive
inhibition of growth at 10 µM (MCF7): 19.8%
inhibition of growth at 10 µM (MDA-MB-231): 7.95%
inhibition of growth at 10 µM [4]: 8.56%
inhibition of growth at 10 µM [5]: 20.6%
inhibition of growth at 10 µM (T47D): 39.3%
inhibition of growth at 10 µM (MDA-MB-468): 23%
inhibition of growth at 10 µM (CCRF-CEM): 25.3%
inhibition of growth at 10 µM (K562): 25.7%
inhibition of growth at 10 µM [6]: 27.5%
inhibition of growth at 10 µM [7]: 33.7%
inhibition of growth at 10 µM (SR): 28.3%
inhibition of growth at 10 µM (A549): 13.8%
inhibition of growth at 10 µM [8]: 0.23%
inhibition of growth at 10 µM [9]: 19.4%
inhibition of growth at 10 µM (NCI-H226): 11.1%
inhibition of growth at 10 µM (NCI-H23): 6.24%
growth inhibition (GI) (NCI-H322M): inactive
inhibition of growth at 10 µM (NCI-H460): 4.15%
inhibition of growth at 10 µM (NCI-H522): 20.4%
inhibition of growth at 10 µM [10]: 6.67%
growth inhibition (GI) (HCC 2998): inactive
inhibition of growth at 10 µM [11]: 13.3%
inhibition of growth at 10 µM [12]: 8.36%
growth inhibition (GI) (HT-29): inactive
inhibition of growth at 10 µM (KM12): 7.5%
inhibition of growth at 10 µM [13]: 0.58%
growth inhibition (GI) (SF-268): inactive
inhibition of growth at 10 µM [14]: 11%
inhibition of growth at 10 µM [15]: 3.59%
inhibition of growth at 10 µM [16]: 2.43%
inhibition of growth at 10 µM [17]: 8.89%
inhibition of growth at 10 µM (U-251): 6.96%
growth inhibition (GI) (LOX IMVI): inactive
inhibition of growth at 10 µM (Malme-3M): 6.95%
inhibition of growth at 10 µM (M14): 6.68%
inhibition of growth at 10 µM (MDA-MB-435): 2.54%
growth inhibition (GI) (SK-MEL-28): inactive
inhibition of growth at 10 µM (SK-MEL-5): 26%
growth inhibition (GI) (UACC-257): inactive
inhibition of growth at 10 µM [18]: 6.56%
growth inhibition (GI) (IGROV-1): inactive
inhibition of growth at 10 µM [19]: 3.09%
growth inhibition (GI) (OVCAR-4): inactive
inhibition of growth at 10 µM [20]: 4.04%
inhibition of growth at 10 µM [21]: 18.1%
growth inhibition (GI) (SK-OV-3): inactive
inhibition of growth at 10 µM (786-0): 11.9%
inhibition of growth at 10 µM (A498): 25.3%
inhibition of growth at 10 µM (ACHN): 4.66%
